Experimental data from patent US8580811B2 (Ligand Pharmaceuticals Incorporated, priority 2005, dated 2013).
Where two headings read alike, the source gives them in different places.

Biological target: T1, human AR (Homo sapiens, UniProt P10275)
T1 construct: expressed in transfected cells; host or cells: COS-1 cells
T1 sequence (P10275 1-920): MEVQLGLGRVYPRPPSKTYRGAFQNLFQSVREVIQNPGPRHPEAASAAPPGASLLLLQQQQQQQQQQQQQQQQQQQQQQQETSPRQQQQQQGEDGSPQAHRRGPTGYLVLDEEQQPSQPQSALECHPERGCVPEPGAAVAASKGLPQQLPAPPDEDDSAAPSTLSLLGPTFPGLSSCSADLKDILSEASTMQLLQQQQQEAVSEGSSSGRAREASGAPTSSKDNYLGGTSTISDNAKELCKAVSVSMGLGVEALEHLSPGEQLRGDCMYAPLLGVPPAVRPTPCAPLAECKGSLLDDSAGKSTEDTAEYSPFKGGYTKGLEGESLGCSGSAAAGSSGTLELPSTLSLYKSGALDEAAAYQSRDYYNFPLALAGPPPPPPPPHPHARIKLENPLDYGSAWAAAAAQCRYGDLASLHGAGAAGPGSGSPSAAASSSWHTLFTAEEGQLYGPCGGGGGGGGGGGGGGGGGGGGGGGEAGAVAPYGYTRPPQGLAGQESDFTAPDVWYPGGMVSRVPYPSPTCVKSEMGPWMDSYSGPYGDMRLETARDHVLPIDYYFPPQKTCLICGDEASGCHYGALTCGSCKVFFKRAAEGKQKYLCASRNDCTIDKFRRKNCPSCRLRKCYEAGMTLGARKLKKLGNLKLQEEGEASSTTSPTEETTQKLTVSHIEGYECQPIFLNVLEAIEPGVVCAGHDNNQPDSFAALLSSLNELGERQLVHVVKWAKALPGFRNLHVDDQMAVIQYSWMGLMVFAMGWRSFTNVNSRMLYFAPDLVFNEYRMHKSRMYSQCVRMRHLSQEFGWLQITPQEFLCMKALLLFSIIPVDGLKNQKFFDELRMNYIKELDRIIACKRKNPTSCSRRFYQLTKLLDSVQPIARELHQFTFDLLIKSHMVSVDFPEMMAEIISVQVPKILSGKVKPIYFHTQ
Assay: IR Binding Assay: whole cell competitive binding of test compounds against 3H-DHT in COS-1 cells transfected with pRShAR
Method in brief: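 COS-1 cells transfected with pRShAR plus β-Gal reporter, serum-starved 24 h, then exposed to 1 nM ³H-DHT with compounds at 10^−10 to 10^−6 M for 3 h at 37 °C. Bound ³H-DHT counted in lysates, normalized to β-Gal. IC50 from log-logit plot; Ki via Cheng-Prusoff using Kd from Scatchard saturation analysis.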

Structure (SMILES)	Ki	Ki (competition with 1 nM 3H-DHT, transfected COS-1 cells, 3 h at 37° C., Cheng-Prusoff from IC50, read-out: Ki)
Cc1c(C)n(CCC(F)(F)F)c2ccc3[nH]c(=O)cc(Cl)c3c12 [Compound 213, 9-Chloro-1,2-dimethyl-3-(3,3,3-trifluoropropyl)-3,6-dihydro-pyrrolo[3,2-f]quinolin-7-one]	< 5 nM	
Cc1c(C)n(C[C@@H](O)C(F)(F)F)c2ccc3[nH]c(=O)cc(C(F)(F)F)c3c12 [Compound 244, (+)-1,2-Dimethyl-3-(3,3,3-trifluoro-2-hydroxy-propyl)-9-trifluoromethyl-3,6-dihydro-pyrrolo[3,2-f]-quinolin-7-one]	> 10 nM	
Cc1c(-c2ncco2)n(CC(F)(F)F)c2ccc3[nH]c(=O)cc(Cl)c3c12 [Compound 257, 9-Chloro-1-methyl-2-(2-oxazolyl)-3-(2,2,2-trifluoroethyl)-3,6-dihydro-pyrrolo[3,2-f]-quinolin-7-one]	< 5 nM	
CCC1C(C)c2c(ccc3[nH]c(=O)cc(C(F)(F)F)c23)N1CCC(F)(F)F (racemic) [Compound 180, (±)-2-Ethyl-1-methyl-9-trifluoromethyl-3-(3,3,3-trifluoropropyl)-1,2,3,6-tetrahydro-pyrrolo[3,2-f]quinolin-7-one]	< 5 nM	
CCN1CC(C)c2c1ccc1[nH]c(=O)cc(Cl)c21 (racemic) [Compound 134, (±)-9-Chloro-3-ethyl-1-methyl-1,2,3,6-tetrahydro-pyrrolo[3,2-f]quinolin-7-one]	< 5 nM	
CCc1c(-c2cccs2)n(CC(F)(F)F)c2ccc3[nH]c(=O)cc(Cl)c3c12 [Compound 209, 9-Chloro-1-ethyl-2-thien-2-yl-3-(2,2,2-trifluoroethyl)-3,6-dihydro-pyrrolo[3,2-f]quinolin-7-one]	< 5 nM	
Cc1c(-c2ccc(F)cc2)n(CC(F)(F)F)c2ccc3[nH]c(=O)cc(Cl)c3c12 [Compound 194, 9-Chloro-2-(4-fluorophenyl)-1-methyl-3-(2,2,2-trifluoroethyl)-3,6-dihydro-pyrrolo[3,2-f]quinolin-7-one]	< 5 nM	
Cc1ccc(-c2c(C)c3c4c(Cl)cc(=O)[nH]c4ccc3n2C[C@@H](O)C(F)(F)F)s1 [Compound 285, (R)-9-Chloro-1-methyl-2-(5-methylthiophen-2-yl)-3-(3,3,3-trifluoro-2-hydroxy-propyl)-3,6-dihydro-pyrrolo[3,2-f]quinolin-7-one]	< 5 nM	
Cc1c(C(F)(F)F)n(CC(F)(F)F)c2ccc3[nH]c(=O)cc(Cl)c3c12 [Compound 229, 9-Chloro-1-methyl-3-(2,2,2-trifluoro-ethyl)-2-trifluoromethyl-3,6-dihydro-pyrrolo[3,2-f]-quinolin-7-one]	< 5 nM	
Cc1ccc(-c2c(C)c3c4c(Cl)cc(=O)[nH]c4ccc3n2CC(F)(F)C(F)(F)F)s1 [Compound 268, 9-Chloro-1-methyl-2-(5-methylthiophen-2-yl)-3-(2,2,3,3,3-pentafluoropropyl)-3,6-dihydro-pyrrolo[3,2-f]quinolin-7-one]	< 5 nM	
CC1c2c(ccc3[nH]c(=O)cc(Cl)c23)N(CC(F)(F)F)C1c1ccc(O)cc1 (racemic) [Compound 155, (±)-9-Chloro-2-(4-hydroxyphenyl)-1-methyl-3-(2,2,2-trifluoroethyl)-1,2,3,6-tetrahydro-pyrrolo[3,2-f]quinolin-7-one]	> 10 nM	
Cc1c(C)n(CC(O)CCl)c2ccc3[nH]c(=O)cc(C(F)(F)F)c3c12 (stereo not drawn) [Compound 294, 3-(3-chloro-2-hydroxypropyl)-1,2-dimethyl-9-trifluoromethyl-3,6-dihydro-pyrrolo[3,2-f]-quinolin-7-one]	< 5 nM	
Cc1c(-c2cccc(F)c2)n(CC(F)(F)F)c2ccc3[nH]c(=O)cc(Cl)c3c12 [Compound 251, 9-Chloro-2-(3-fluorophenyl)-1-methyl-3-(2,2,2-trifluoroethyl)-3,6-dihydro-pyrrolo[3,2-f]-quinolin-7-one]	< 5 nM	
CCN1c2ccc3[nH]c(=O)cc(Cl)c3c2C(C)C1C (racemic) [Compound 135, (±)-9-Chloro-1,2-dimethyl-3-ethyl-1,2,3,6-tetrahydro-pyrrolo[3,2-f]quinolin-7-one]	5 to 10 nM	
Cc1c(C)n(CC(F)(F)Cl)c2ccc3[nH]c(=O)cc(Cl)c3c12 [Compound 212, 9-Chloro-3-(2-chloro-2,2-difluoroethyl)-1,2-dimethyl-3,6-dihydro-pyrrolo[3,2-f]quinolin-7-one]	< 5 nM	
CCc1c(C)c2c3c(Cl)cc(=O)[nH]c3ccc2n1CC(F)(F)C(F)(F)F [Compound 223, 9-Chloro-2-ethyl-1-methyl-3-(2,2,3,3,3-pentafluoropropyl)-3,6-dihydro-pyrrolo[3,2-f]-quinolin-7-one]	< 5 nM	
Cc1c(C=O)c2c3c(Cl)cc(=O)[nH]c3ccc2n1Cc1ccccc1 [Compound 188, 3-Benzyl-9-chloro-2-methyl-7-oxo-6,7-dihydro-3H-pyrrolo[3,2-f]quinoline-1-carbaldehyde]	< 5 nM	
Cc1c(C=O)c2c3c(Cl)cc(=O)[nH]c3ccc2n1CCO [Compound 192, 9-Chloro-3-(2-hydroxy-ethyl)-2-methyl-7-oxo-6,7-dihydro-3H-pyrrolo[3,2-f]quinoline-1-carbaldehyde]	> 10 nM	
O=c1cc(Cl)c2c3c(ccc2[nH]1)N(CC(F)(F)F)C1CCCC31 (racemic) [Compound 126, (±)-9-Chloro-3-(2,2,2-trifluoro-ethyl)-1,2-trimethylene-1,2,3,6-tetrahydro-pyrrolo[3,2-f]-quinolin-7-one]	< 5 nM	
CCCC1c2c(ccc3[nH]c(=O)cc(Cl)c23)N(CC(F)(F)F)C1C (racemic) [Compound 165, (±)-9-Chloro-2-methyl-1-propyl-3-(2,2,2-trifluoroethyl)-1,2,3,6-tetrahydro-pyrrolo[3,2-f]-quinolin-7-one]	< 5 nM	
CCCN1c2ccc3[nH]c(=O)cc(Cl)c3c2C(C)C1C (racemic) [Compound 137, (±)-9-Chloro-1,2-dimethyl-3-propyl-1,2,3,6-tetrahydro-pyrrolo[3,2-f]quinolin-7-one]	< 5 nM	
CCc1c(-c2ccccc2)[nH]c2ccc3[nH]c(=O)cc(Cl)c3c12 [Compound 125, 9-Chloro-1-ethyl-2-phenyl-3,6-dihydro-pyrrolo[3,2-f]quinolin-7-one]		> 10 nM
Cc1c(-c2ccc(C(F)(F)F)cc2)n(CC(F)(F)F)c2ccc3[nH]c(=O)cc(Cl)c3c12 [Compound 202, 9-Chloro-1-methyl-2-(4-trifluoromethylphenyl)-3-(2,2,2-trifluoroethyl)-3,6-dihydro-pyrrolo[3,2-f]-quinolin-7-one]	> 10 nM	
Cc1c(C)n(CC(O)C(F)(F)F)c2ccc3[nH]c(=O)cc(Cl)c3c12 (racemic) [Compound 231, (±)-9-Chloro-1,2-dimethyl-3-(3,3,3-trifluoro-2-hydroxy-propyl)-3,6-dihydro-pyrrolo[3,2-f]-quinolin-7-one]	< 5 nM	
O=c1cc(Cl)c2c(ccc3[nH]c4c(c32)CCC4)[nH]1 [Compound 107, 9-Chloro-1,2-trimethylene-3,6-dihydro-pyrrolo[3,2-f]quinolin-7-one]	> 10 nM	
Cc1c(C)n(CC(F)F)c2ccc3[nH]c(=O)cc(Cl)c3c12 [Compound 191, 9-Chloro-3-(2,2-difluoroethyl)-1,2-dimethyl-3,6-dihydro-pyrrolo[3,2-f]quinolin-7-one]	< 5 nM	
O=c1cc(Cl)c2c3c(ccc2[nH]1)N(CC(F)(F)F)[C@@H]1CCC[C@H]31 [Compound 162, (+)-9-Chloro-3-(2,2,2-trifluoroethyl)-1,2-trimethylene-1,2,3,6-tetrahydropyrrolo[3,2-f]quinolin-7-one]	< 5 nM	
